The supplement of paper PMC8671470
± gives the standard deviation of the averaged measurements.

Assays:
Settings in all cases: 72 h
[1] = test system: myeloid leukemia patient primary cells Pat.7; assay: cell viability (% survival relative to DMSO control); higher = less cytotoxic
In short: (§1)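 Mononuclear cells from patients with AML or CML were thawed, purified on Ficoll and placed in RPMI 1640 with 10% FBS at 10,000 cells/well on 384-well plates. The plates came pre-printed with 70 compounds at five tenfold concentrations spanning 1–10,000 nM, in duplicate, and cells were exposed for 72 h. CellTiter-Glo gave viability, scaled between DMSO wells and wells with 10 μM proteasome inhibitor. Where reported, area under the curve was obtained from log-logistic fits with four parameters using the drc and PharmacoGx R packages.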

[2] = test system: myeloid leukemia patient primary cells Pat.4; assay: as above
In short: as §1

[3] = test system: myeloid leukemia patient primary cells Pat.13; assay: as above
In short: as §1

[4] = test system: myeloid leukemia patient primary cells Pat.5; assay: as above
In short: as §1

[5] = test system: myeloid leukemia patient primary cells Pat.14; assay: as above
In short: as §1

[6] = test system: myeloid leukemia patient primary cells Pat.6; assay: as above
In short: as §1

[7] = test system: myeloid leukemia patient primary cells Pat.9; assay: as above
In short: as §1

[8] = test system: myeloid leukemia patient primary cells Pat.1; assay: as above
In short: as §1

[9] = test system: myeloid leukemia patient primary cells Pat.11; assay: as above
In short: as §1

[10] = test system: myeloid leukemia patient primary cells Pat.3; assay: as above
In short: as §1

[11] = test system: myeloid leukemia patient primary cells Pat.12; assay: as above
In short: as §1

[12] = test system: myeloid leukemia patient primary cells Pat.2; assay: as above
In short: as §1

[13] = test system: myeloid leukemia patient primary cells Pat.8; assay: as above
In short: as §1

[14] = test system: myeloid leukemia patient primary cells Pat.15; assay: as above
In short: as §1

[15] = test system: myeloid leukemia patient primary cells Pat.10; assay: as above
In short: as §1

HL-60 [16] = assay: area under dose-response curve (viability, 1 nM-10 uM) (fraction (0-1)); higher = more sensitive
In short: (§2)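 HL-60 cells grown in RPMI 1640 with 10% FBS were rescreened against the full library in 384-well plates, in duplicate, at five tenfold concentrations from 1 to 10,000 nM, alongside DMSO or 100 nM of one of three metabolic inhibitors for 72 h at 37 °C, 5% CO2. Reference wells contained DMSO or 10 μM proteasome inhibitor. Viability was read with CellTiter-Glo and normalised to these reference wells, and where reported, area under the curve was taken from four-parameter log-logistic fits in drc and PharmacoGx.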

HL-60 [17] = assay: cell viability (% survival relative to DMSO control); higher = less cytotoxic
In short: as §2

Fc1ccc(CNc2ncnc3ccc(F)cc23)cc1 [Spautin 1]
Settings	area under dose-response curve, co-treatment: AZD3965 100 nM	area under dose-response curve, co-treatment: DMSO vehicle	area under dose-response curve, co-treatment: GSK2194069 100 nM	area under dose-response curve, co-treatment: pictilisib 100 nM	cell viability, 1 nM [%]	cell viability, 10 nM [%]	cell viability, 100 nM [%]	cell viability, 1000 nM [%]	cell viability, 10000 nM [%]
HL-60 [16]	< 0.0301	0.0409	0.0623	0.0324	–	–	–	–	–
[1]	–	–	–	–	74.6	70.9	> 100	58.8	30.3
[2]	–	–	–	–	77.2	87.3	96.2	70.4	50.5
[3]	–	–	–	–	97.7	78.3	89.4	75.7	34.9
[4]	–	–	–	–	84.9	17	78.9	25.9	2.01
[5]	–	–	–	–	87.2	56.5	90.5	60.7	31.2
[6]	–	–	–	–	> 100	86.8	96.6	87.9	42.2
[7]	–	–	–	–	67.2	7.92	65.9	12.7	5.45
[8]	–	–	–	–	97	84.4	88.1	81.7	46.4
[9]	–	–	–	–	> 100	96.2	97.9	92.2	84.7
[10]	–	–	–	–	63.4	49.7	> 100	33.1	69.9
[11]	–	–	–	–	97.3	87.3	> 100	> 100	72.6
[12]	–	–	–	–	97.1	88.7	> 100	87.3	77.2
[13]	–	–	–	–	93.5	82.1	85.6	80.7	51.1
[14]	–	–	–	–	96.5	90.9	91.5	79.4	25.9
[15]	–	–	–	–	73	15.3	96.8	78.5	47.9

cell viability [%], HL-60 [17]
Settings	0.001 µM	0.01 µM	0.1 µM	1 µM	10 µM
co-treatment: AZD3965 100 nM	78.7 ± 29	99.98 ± 0.92	101 ± 1.4	103 ± 2.2	71.3 ± 9.4
co-treatment: DMSO vehicle	98.11 ± 0.4	97.89 ± 0.34	109 ± 1.2	96.7 ± 8	78.31 ± 0.12
co-treatment: GSK2194069 100 nM	91.31 ± 0.4	100 ± 4.9	104 ± 8.1	89.5 ± 8.1	58 ± 9.4
co-treatment: pictilisib 100 nM	100 ± 2.8	96.8 ± 2.8	108 ± 16	98.7 ± 6.6	80.4 ± 9.9

O=c1[nH]c(=O)n([C@H]2C[C@H](O)[C@@H](CO)O2)cc1I [Idoxuridine]
Settings	area under dose-response curve, co-treatment: AZD3965 100 nM	area under dose-response curve, co-treatment: DMSO vehicle	area under dose-response curve, co-treatment: GSK2194069 100 nM	area under dose-response curve, co-treatment: pictilisib 100 nM	cell viability, 1 nM [%]	cell viability, 10 nM [%]	cell viability, 100 nM [%]	cell viability, 1000 nM [%]	cell viability, 10000 nM [%]
HL-60 [16]	< 0.0301	< 0.0301	< 0.0301	< 0.0301	–	–	–	–	–
[1]	–	–	–	–	77.4	69.3	83.4	63	> 100
[2]	–	–	–	–	99.7	82.4	89.8	68.2	93.1
[3]	–	–	–	–	91	84.4	83.4	74.8	91.9
[4]	–	–	–	–	45.5	10.2	87.4	17.2	46.7
[5]	–	–	–	–	82.1	75.7	92.2	58.6	> 100
[6]	–	–	–	–	97.7	97.7	99.8	83.2	> 100
[7]	–	–	–	–	34.8	59.9	68.1	35.5	70.3
[8]	–	–	–	–	84.3	81.5	95	74.3	95.4
[9]	–	–	–	–	> 100	95.9	96.4	90.7	> 100
[10]	–	–	–	–	19.5	71.8	81.6	83.6	95.1
[11]	–	–	–	–	95.6	95.6	99	87.3	99.1
[12]	–	–	–	–	> 100	90	94.9	84.2	98.2
[13]	–	–	–	–	96.3	> 100	76.2	68.1	93.1
[14]	–	–	–	–	92.5	93.5	93.7	90.3	94.7
[15]	–	–	–	–	76.4	55.7	61.4	41.6	> 100

cell viability [%], HL-60 [17]
Settings	0.001 µM	0.01 µM	0.1 µM	1 µM	10 µM
co-treatment: AZD3965 100 nM	94.7 ± 5.6	102 ± 7.4	98.5 ± 1.3	97.9 ± 8.4	102 ± 2.1
co-treatment: DMSO vehicle	99.9 ± 2.4	100 ± 3.8	99.7 ± 3.8	94.9 ± 5	103 ± 3.1
co-treatment: GSK2194069 100 nM	95.3 ± 9.7	100 ± 6.1	101 ± 3	98.6 ± 4	86.4 ± 4.5
co-treatment: pictilisib 100 nM	84.1 ± 16	95.8 ± 0.38	97.3 ± 2.2	93.8 ± 0.58	90 ± 3.7

NS(=O)(=O)c1ccc(S(=O)(=O)Nc2cccc3c(Cl)c[nH]c23)cc1 [Indisulam]
Settings	area under dose-response curve, co-treatment: AZD3965 100 nM	area under dose-response curve, co-treatment: DMSO vehicle	area under dose-response curve, co-treatment: GSK2194069 100 nM	area under dose-response curve, co-treatment: pictilisib 100 nM	cell viability, 1 nM [%]	cell viability, 10 nM [%]	cell viability, 100 nM [%]	cell viability, 1000 nM [%]	cell viability, 10000 nM [%]
HL-60 [16]	< 0.0301	< 0.0301	< 0.0301	< 0.0301	–	–	–	–	–
[1]	–	–	–	–	93.3	77.1	91.3	43.1	21.2
[2]	–	–	–	–	91.4	87.2	86	28	9.12
[3]	–	–	–	–	92.6	91.3	98	57.4	44.8
[4]	–	–	–	–	47.7	70.8	62.1	17.9	12.4
[5]	–	–	–	–	75.2	84.3	85.7	62.6	66.6
[6]	–	–	–	–	99.9	98.2	> 100	81.5	63.2
[7]	–	–	–	–	47.8	84	81.1	40.9	24.6
[8]	–	–	–	–	94.5	> 100	94.1	65.2	48.8
[9]	–	–	–	–	93.9	> 100	> 100	86.3	72.1
[10]	–	–	–	–	84.5	> 100	> 100	72.9	34.2
[11]	–	–	–	–	89.5	95.5	89.6	96.9	85.2
[12]	–	–	–	–	> 100	88.2	95.8	96.9	67.1
[13]	–	–	–	–	89.9	91.6	97.5	79.2	55.5
[14]	–	–	–	–	90.2	90.8	75.9	79.2	44.1
[15]	–	–	–	–	55.5	64.9	97	81.4	> 100

cell viability [%], HL-60 [17]
Settings	0.001 µM	0.01 µM	0.1 µM	1 µM	10 µM
co-treatment: AZD3965 100 nM	97.4 ± 3.1	97.92 ± 0.55	98.8 ± 1.2	110 ± 4.3	89.8 ± 4.5
co-treatment: DMSO vehicle	96.4 ± 10	95 ± 2.6	101 ± 5.8	104 ± 3.4	92.2 ± 5.2
co-treatment: GSK2194069 100 nM	101 ± 8.2	101 ± 10	100 ± 6.5	105 ± 1.5	90.9 ± 1
co-treatment: pictilisib 100 nM	110 ± 7.8	95.2 ± 6.7	104 ± 2.7	112.7 ± 0.37	77.3 ± 7.4

c1ccc2c(c1)SCc1c-2[nH]c2ccccc12
Settings	area under dose-response curve, co-treatment: AZD3965 100 nM	area under dose-response curve, co-treatment: DMSO vehicle	area under dose-response curve, co-treatment: GSK2194069 100 nM	area under dose-response curve, co-treatment: pictilisib 100 nM	cell viability, 1 nM [%]	cell viability, 10 nM [%]	cell viability, 100 nM [%]	cell viability, 1000 nM [%]	cell viability, 10000 nM [%]
HL-60 [16]	< 0.0301	< 0.0301	< 0.0301	< 0.0301	–	–	–	–	–
[1]	–	–	–	–	> 100	72.5	> 100	41.6	< 0
[2]	–	–	–	–	95.6	83.4	91	67.8	< 0
[3]	–	–	–	–	90.5	72.1	92.1	61.1	22.6
[4]	–	–	–	–	82.4	5.49	44.4	7.88	2.27
[5]	–	–	–	–	95.4	54.1	67.2	4.19	6.72
[6]	–	–	–	–	98.8	82.9	95	88.3	0.384
[7]	–	–	–	–	91.9	34.7	71	2.02	5.35
[8]	–	–	–	–	95.2	64.7	96.7	85.8	0.548
[9]	–	–	–	–	> 100	94.7	99.1	89.8	0.682
[10]	–	–	–	–	96.1	76.1	89.8	2.3	< 0
[11]	–	–	–	–	96.4	96.2	94.1	81.1	0.896
[12]	–	–	–	–	96.8	89.3	97.2	86.9	3.43
[13]	–	–	–	–	92.5	67.3	69.9	75.9	0.503
[14]	–	–	–	–	94.1	97.3	89.1	59.8	0.46
[15]	–	–	–	–	73.8	59.9	41.9	3.78	42.4

cell viability [%], HL-60 [17]
Settings	0.001 µM	0.01 µM	0.1 µM	1 µM	10 µM
co-treatment: AZD3965 100 nM	80.9 ± 24	94.8 ± 9.9	107 ± 3.7	117 ± 11	94.6 ± 18
co-treatment: DMSO vehicle	102.4 ± 0.67	101.01 ± 0.034	98.13 ± 0.25	101 ± 2.6	96.9 ± 1.2
co-treatment: GSK2194069 100 nM	96.7 ± 2.4	100.7 ± 0.49	103 ± 1.6	96.4 ± 3.2	93.2 ± 5.7
co-treatment: pictilisib 100 nM	90.3 ± 19	86.7 ± 13	104 ± 3.1	105 ± 9	98.9 ± 2
